Calls of active or inactive are those of the source.
Experiments:
[1] = viability of uninfected HEp-2 cells – cell-based, HTS, cytotoxicity control for RSV inhibitor project, dose response (AID 2410); format: functional; settings: human respiratory syncytial virus
[2] = NIH-3T3 fibroblast cytotoxicity, dose response, cytotoxicity control, cell-based, fluorescence, Alamar Blue, secondary assay (AID 2327); format: functional;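 also: NIH-3T3 mouse fibroblasts cultured with fluconazole at 8 µg/mL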
cells [3] = assay: cells
[4] = fluconazole-exposed Candida albicans growth modulators – fluorescence, retest, confirmation (AID 2467); format: functional, cell-based
[5] = A cytotoxicity screen of small molecule inhibitors of the PhoP region in Salmonella typhi identified in the primary screen. [Related pubchem assays: 1850, 1864, 1985 ]; format: functional
[6] = target: T1, Calpain-2 catalytic subunit (Sus scrofa, UniProt P43367); assay: m-calpain protease blockers, concentration series – biochemical, fluorogenic peptide substrate, dose response (AID 1420); format: functional
T1 sequence (P43367 whole entry): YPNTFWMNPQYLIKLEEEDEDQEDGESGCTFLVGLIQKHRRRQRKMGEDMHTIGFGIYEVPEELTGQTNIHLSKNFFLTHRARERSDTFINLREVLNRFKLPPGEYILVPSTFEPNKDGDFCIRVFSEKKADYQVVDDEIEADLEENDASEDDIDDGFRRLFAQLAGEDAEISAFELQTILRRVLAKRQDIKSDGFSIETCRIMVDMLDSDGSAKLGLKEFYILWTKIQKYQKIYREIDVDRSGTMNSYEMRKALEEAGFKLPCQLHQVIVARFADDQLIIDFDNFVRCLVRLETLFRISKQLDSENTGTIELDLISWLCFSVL

Cytochrome P450 3A4 = Cytochrome P450 3A4 (Homo sapiens, UniProt P08684); settings: Potency;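 also: confirmatory qHTS run detecting inhibitors and substrates of CYP3A4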
Chain of Cytochrome P450 3A4 (P08684 whole entry): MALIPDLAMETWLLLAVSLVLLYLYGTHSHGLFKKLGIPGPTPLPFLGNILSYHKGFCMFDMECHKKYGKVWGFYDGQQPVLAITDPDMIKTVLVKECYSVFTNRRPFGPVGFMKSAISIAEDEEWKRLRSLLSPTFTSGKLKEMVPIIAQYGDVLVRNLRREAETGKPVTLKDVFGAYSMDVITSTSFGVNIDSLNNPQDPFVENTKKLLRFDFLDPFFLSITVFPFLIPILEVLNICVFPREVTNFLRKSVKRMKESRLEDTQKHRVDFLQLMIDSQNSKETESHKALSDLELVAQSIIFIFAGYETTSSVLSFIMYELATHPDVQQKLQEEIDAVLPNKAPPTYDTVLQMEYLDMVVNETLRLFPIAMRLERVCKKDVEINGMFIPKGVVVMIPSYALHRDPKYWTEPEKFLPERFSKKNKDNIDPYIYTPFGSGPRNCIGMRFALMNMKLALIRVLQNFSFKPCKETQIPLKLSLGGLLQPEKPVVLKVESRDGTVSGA

[7] = Trypanosoma cruzi growth suppression in host cells – NIH3T3 host cells, beta-gal luminescence, confirmation (AID 2044); format: functional, cell-based;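 also: intracellular parasites grown in NIH/3T3 mouse fibroblasts as host cells; luminescent beta-galactosidase reporter signal from transgenic T. cruzi replicating inside host cells; inhibitors lower the luminescence signal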
cells [8] = assay: cells; remark: listed apart in the source
[9] = NIH3T3 cell viability loss – ATP luminescence, mouse fibroblasts, counter-screen, dose response (AID 2010); format: functional, cell-based;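 also: cells exposed to compound for about 90 hours before reading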
[10] = luciferase reporter signal suppression in cells – H4 neuroglioma cells, luminescence, dose response (AID 1990); format: functional, cell-based
[11] = Luminescence Cell-Based Dose Response HTS to Identify Inhibitors of 5'UTR Stem-Loop Driven Prion Protein mRNA Translation in H4 Neuroglioblastoma Cells. [Related pubchem assays: 1827 (Project Summary), 1813 (Primary HTS)]; format: functional
[12] = alpha-synuclein stem-loop luciferase translation blockers – H4 neuroglioma cells, luminescence, confirmation (AID 1988); format: functional, cell-based
[13] = Luminescence Cell-Based Dose Retest to Confirm Inhibitors of Cancer Stem Cells. [Related pubchem assays (depositor defined):AID2717, AID2721]; format: functional; settings: Homo sapiens
[14] = target: T2, Ubiquitin-conjugating enzyme E2 N (Homo sapiens, UniProt P61088); format: functional;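 also: Dose-response confirmation in a TR-FRET assay detecting UBC13-driven polyubiquitin chain formation, inhibition measured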
T2 sequence (P61088 whole entry): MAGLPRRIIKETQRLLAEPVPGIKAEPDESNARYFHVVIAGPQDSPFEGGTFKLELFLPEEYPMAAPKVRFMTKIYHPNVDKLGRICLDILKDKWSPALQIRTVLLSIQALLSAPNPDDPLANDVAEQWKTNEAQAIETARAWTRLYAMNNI

[15] = viability of PTEN-deleted HCT116 cells – cell-based, HCT116 PTEN knockout, dose response (AID 1047); format: functional;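 also: HCT116 colon tumor cells with PTEN knocked out; cells exposed to compound for 60 hours before readout; potency for loss of cell viability measured by luminescence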
[16] = viability of HCT116 lacking mutant beta-catenin – cell-based, human colon tumor, dose response (AID 1045); format: functional;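 also: HCT116 colon tumor cells with beta catenin knocked out; cells exposed to compound for 60 hours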
Vero = assay: cells; format: functional; settings: Chlorocebus sabaeus
[17] = target: T3, Short transient receptor potential channel 4 (Mus musculus, UniProt Q9QUQ5); assay: calcium entry via TRPC4 opening agents – cell-based, HEK293 TRPC4/mu-opioid, Fluo-4 calcium, dose response (AID 434937); format: functional
T3 sequence (Q9QUQ5 whole entry): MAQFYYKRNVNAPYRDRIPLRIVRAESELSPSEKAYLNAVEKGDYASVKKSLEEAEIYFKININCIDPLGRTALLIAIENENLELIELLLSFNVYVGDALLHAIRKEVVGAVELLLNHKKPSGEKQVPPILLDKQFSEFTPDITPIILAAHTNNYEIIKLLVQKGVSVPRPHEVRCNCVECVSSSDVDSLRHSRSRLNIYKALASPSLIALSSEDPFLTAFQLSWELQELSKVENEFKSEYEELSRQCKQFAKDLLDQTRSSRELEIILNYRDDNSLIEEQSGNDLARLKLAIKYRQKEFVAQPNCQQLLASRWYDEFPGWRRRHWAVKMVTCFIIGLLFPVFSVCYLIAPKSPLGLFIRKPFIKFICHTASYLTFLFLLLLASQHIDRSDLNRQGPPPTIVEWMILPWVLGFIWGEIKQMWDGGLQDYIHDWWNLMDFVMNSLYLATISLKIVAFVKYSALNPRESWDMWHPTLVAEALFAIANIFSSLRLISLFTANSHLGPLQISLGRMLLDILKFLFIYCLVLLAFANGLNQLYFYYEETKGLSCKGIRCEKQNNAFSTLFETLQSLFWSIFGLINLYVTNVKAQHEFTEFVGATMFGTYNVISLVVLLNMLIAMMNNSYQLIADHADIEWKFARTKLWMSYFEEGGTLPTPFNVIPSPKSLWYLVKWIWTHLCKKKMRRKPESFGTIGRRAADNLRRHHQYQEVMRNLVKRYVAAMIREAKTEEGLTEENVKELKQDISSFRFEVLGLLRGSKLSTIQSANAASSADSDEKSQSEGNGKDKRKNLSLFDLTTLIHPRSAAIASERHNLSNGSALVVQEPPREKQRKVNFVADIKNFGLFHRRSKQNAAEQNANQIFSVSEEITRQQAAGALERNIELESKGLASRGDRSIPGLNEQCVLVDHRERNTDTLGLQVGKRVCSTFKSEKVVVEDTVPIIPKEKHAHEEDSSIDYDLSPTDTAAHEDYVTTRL

Protein skinhead-1 = target: T4, Protein skinhead-1 (Caenorhabditis elegans, UniProt P34707); format: functional
T4 sequence (P34707 whole entry): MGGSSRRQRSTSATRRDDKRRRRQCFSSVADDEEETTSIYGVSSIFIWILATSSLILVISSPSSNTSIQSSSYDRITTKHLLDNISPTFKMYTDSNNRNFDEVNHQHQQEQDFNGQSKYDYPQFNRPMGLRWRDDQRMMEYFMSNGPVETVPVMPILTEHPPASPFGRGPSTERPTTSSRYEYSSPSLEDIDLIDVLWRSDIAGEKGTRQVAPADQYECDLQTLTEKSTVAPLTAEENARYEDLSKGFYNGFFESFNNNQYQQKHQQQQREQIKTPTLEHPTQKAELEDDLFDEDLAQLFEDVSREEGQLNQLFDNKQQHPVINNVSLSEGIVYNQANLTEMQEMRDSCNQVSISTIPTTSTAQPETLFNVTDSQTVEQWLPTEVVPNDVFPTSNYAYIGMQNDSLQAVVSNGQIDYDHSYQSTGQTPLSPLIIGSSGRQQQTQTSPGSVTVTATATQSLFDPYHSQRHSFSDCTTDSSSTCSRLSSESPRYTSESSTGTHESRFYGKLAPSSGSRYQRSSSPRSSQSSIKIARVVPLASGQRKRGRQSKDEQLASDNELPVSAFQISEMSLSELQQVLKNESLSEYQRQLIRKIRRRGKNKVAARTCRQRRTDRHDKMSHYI

[18] = target: T5, Heat shock factor protein 1 (Mus musculus, UniProt P38532); assay: enhancement of HSF1-driven luciferase signal – cell-based, NIH3T3, luminescence, dose retest, confirmation (AID 435004); format: functional;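 also: stress induced by proteasome inhibitor MG132 added 30 min after compound; luciferase reporter driven by HSF1 response element in NIH3T3 cells; actives raise luminescence as potentiators of the MG132 stress response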
T5 sequence (P38532 whole entry): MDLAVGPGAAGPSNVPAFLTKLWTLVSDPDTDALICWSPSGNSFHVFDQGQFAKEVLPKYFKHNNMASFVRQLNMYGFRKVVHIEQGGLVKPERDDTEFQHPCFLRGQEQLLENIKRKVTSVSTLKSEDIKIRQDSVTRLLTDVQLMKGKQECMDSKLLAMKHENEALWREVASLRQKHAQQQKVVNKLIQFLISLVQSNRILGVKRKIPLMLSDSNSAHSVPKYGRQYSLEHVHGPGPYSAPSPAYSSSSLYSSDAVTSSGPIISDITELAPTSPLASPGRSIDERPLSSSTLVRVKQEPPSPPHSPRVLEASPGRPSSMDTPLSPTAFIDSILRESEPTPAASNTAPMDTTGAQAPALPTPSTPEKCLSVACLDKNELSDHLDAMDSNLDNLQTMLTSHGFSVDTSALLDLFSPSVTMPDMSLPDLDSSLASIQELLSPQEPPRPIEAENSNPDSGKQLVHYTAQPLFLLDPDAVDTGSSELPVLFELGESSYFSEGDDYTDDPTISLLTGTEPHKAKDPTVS

Structure (SMILES): Cc1c2ccccc2nc2c(F)c(NCCO)c(F)c(F)c12
- CC50 [1]: 1.77 µM (active)
- EC50 [2]: > 160 µM (inactive)
- IC50 (cells [3]): 1.53 µM (active)
- EC50 [4]: > 38 µM (not active)

Structure (SMILES): COc1ccc(CNc2nc3ccccc3n2C)c(O)c1
- EC50 [5]: > 50 µM (active)

Structure (SMILES): Cc1ccc(S(=O)(=O)NCC(=O)OCN2C(=O)c3ccccc3C2=O)cc1
- EC50 [5]: > 50 µM (active)

Structure (SMILES): Cc1ccccc1-n1nnnc1SCc1ncc(-c2ccccc2)o1
- IC50 [6]: 5.05 µM (not active)

Structure (SMILES): CCNC(=O)Oc1cccnc1O
- EC50 [5]: > 50 µM (active)

Structure (SMILES): N#Cc1ccc(-c2ccc(OCC(=O)NCCCN3CCCC3=O)cc2)cc1
- EC50 [5]: > 50 µM (active)

Structure (SMILES): CCCCCCC#CC1C=CC(Oc2ccc(C=O)cc2)C(CO)O1 (centres undefined)
- AC50 (Cytochrome P450 3A4): 3.98 µM (inconclusive)

Structure (SMILES): CCn1nc(C)c(CN2CCCC(C(=O)c3cccc(OC(C)C)c3)C2)c1C (centres undefined)
- EC50 [7]: < 0.1 µM (active)
- EC50 (cells [8]): 0.21 µM (active)
- EC50 [9]: > 60 µM (not active)

Structure (SMILES): O=C(Nc1ccncc1)c1cc(-c2cccc(Br)c2)nc2ccccc12
- CC50 [1]: 22.7 µM (active)
- EC50 [10]: > 120 µM (not active)
- EC50 [11]: > 120 µM (not active)
- EC50 [12]: > 120 µM (not active)
- AC50 [13]: 5.05 µM (active)
- IC50 (cells [3]): 17.4 µM (active)

Structure (SMILES): COc1ccc2cc3cc(C(=O)Nc4ccccc4N4CCN(C)CC4)oc3nc2c1
- EC50 [7]: 1.65 µM (active)
- IC50 [14]: > 20 µM (inactive)
- EC50 [15]: 1.43 µM (active)
- EC50 [16]: 2.25 µM (active)
- EC50 [9]: 4.47 µM (active)

Structure (SMILES): CCOC(=O)OCC1OC(C#Cc2ccc(C)cc2C)C=CC1OC(=O)OCC (centres undefined)
- AC50 (Cytochrome P450 3A4): 3.98 µM (inconclusive)

Structure (SMILES): C=CCSc1nc2sc3c(c2c(=O)n1-c1ccccc1)CCN(C)C3
- EC50 [7]: < 0.1 µM (active)
- EC50 (cells [8]): 0.474 µM (active)
- EC50 [9]: > 60 µM (not active)

Structure (SMILES): Clc1ccc(C(c2ccccc2)N2CCNCC2)cc1 (centres undefined) [NORCHLORCYCLIZINE]
- EC50 [5]: > 50 µM (active)

Structure (SMILES): CN(C)CCCN(C(=O)c1nc2ccccc2s1)c1nc2ccc(F)cc2s1
- EC50 [7]: < 0.1 µM (active)
- EC50 (cells [8]): < 0.004 µM (active)
- CC50 (Vero): > 25 µM (active)
- EC50 [9]: > 60 µM (not active)

Structure (SMILES): CCNC(=S)NCC
- AC50 (Cytochrome P450 3A4): 6.31 µM (inconclusive)

Structure (SMILES): O=C(OCc1nnc(-c2ccccc2)o1)C12CC3CC(CC(Br)(C3)C1)C2
- IC50 [6]: 3.14 µM (not active)

Structure (SMILES): CC(=O)Nc1ccc(S(=O)(=O)NCC2CCC(C(=O)NCCC3=CCCCC3)CC2)cc1 (centres undefined)
- IC50 [6]: 9.12 µM (not active)

Structure (SMILES): COc1ccccc1NC(=O)/C=C\C(=O)O
- IC50 [6]: 17.4 µM (not active)

Structure (SMILES): CC(C)Cc1ccc(CN2CCCC(NC(=O)CCn3cnnn3)C2)cc1 (centres undefined)
- EC50 [7]: < 0.1 µM (active)
- EC50 (cells [8]): 0.046 µM (active)
- EC50 [17]: 4.22 µM (active)
- EC50 [9]: > 30 µM (not active)

Structure (SMILES): O=C(CSc1nc2ccccc2c2nc3ccccc3n12)NCc1ccco1
- IC50 (Protein skinhead-1): > 100 µM (inactive)
- IC50 (cells [3]): 45.6 µM (active)
- EC50 [18]: > 260 µM (inactive)

Structure (SMILES): COc1cc(C/C=C/c2ccccc2)c(OC)cc1O [VIOLASTYRENE]
- AC50 (Cytochrome P450 3A4): 39.8 µM (inconclusive)

Structure (SMILES): O=C(Nc1nonc1NC(=O)c1cccs1)c1cccs1
- EC50 [2]: > 150 µM (inactive)
- EC50 [5]: > 50 µM (active)
- EC50 [4]: 0.44 µM (active)

Structure (SMILES): O=C(CCCN1C(=O)c2cccc3cccc(c23)C1=O)N1CCN(c2ccccn2)CC1
- IC50 [6]: 2.13 µM (not active)

Reference: ChEMBL document CHEMBL1201862, “PubChem BioAssay data set” (2004)
